Literature values, collected in patent US6703389B2, “Method of treating chronic pain” (Pharmacia & Upjohn Company, priority 1999, dated 2004).

Legend:
[1] = mice, literature (Brunello and Racagni 1998)
[2] = literature (Leonard 1997)
[3] = tested on: norepinephrine reuptake compared to serotonin reuptake; settings: rat brain synaptosomes, literature

| pharmacological selectivity for inhibiting norepinephrine reuptake compared to serotonin reuptake, ratio of Ki values [3] | Compound | effect on resperine-induced blepharospasm and hypothermia [1] | effect in the 8-OH-DPAT hypothermia test [2] |
| --- | --- | --- | --- |
|  | CCOc1ccccc1OC(c1ccccc1)C1CNCCO1 (racemic) [Reboxetine, 2-[(2-ethoxyphenoxy)(phenyl)methyl]morpholine] | prevent | ineffective |
| about 4166 | CNCC(O)CC12CCC(c3ccccc31)c1ccccc12 (stereo not drawn) [oxaprotiline] |  |  |
